{"source": "patent US8193210B2", "about": "“Camptothecin derivatives with antitumor activity” (Indena S.p.A., priority 2006, dated 2012)", "key": {"[1]": {"tested_on": "NCI-H460 cell line (NSCL cancer)", "test": "Cell growth inhibition assay (cytotoxicity, cell count)", "type": "cell-based, human", "settings": "for NCl-H460 IC50 (μg/mL) Cell count: H460 cells; for IC50: Homo sapiens", "experimental": "The compounds of the invention were tested in a cytotoxicity assay on a wide spectrum of tumour cells. By way of example, the cytotoxicity data on the NCI-H460 cell line (NSCL cancer) concerning two compounds of formula (I) are reported, using camptothecin and the drugs Topotecan and SN-38 as references:\nH460 Cells from human large cell lung tumor were cultured in RPMI-1640 medium containing 10% foetal calf serum. Cell sensitivity was determined by cell growth inhibition assay after 1 or 72 hr drug exposure. The cells in logarithmic growth were collected and seeded in duplicate in 6-wells plates. […] IC50 is defined as the concentration inhibiting by 50% cell growth compared with untreated controls growth."}, "[2]": {"biological_target": "T1, human recombinant enzyme (full length top1) (Homo sapiens, UniProt P11387)", "T1 construct": "the human recombinant enzyme (full length top1)", "T1 sequence (P11387 1-765)": "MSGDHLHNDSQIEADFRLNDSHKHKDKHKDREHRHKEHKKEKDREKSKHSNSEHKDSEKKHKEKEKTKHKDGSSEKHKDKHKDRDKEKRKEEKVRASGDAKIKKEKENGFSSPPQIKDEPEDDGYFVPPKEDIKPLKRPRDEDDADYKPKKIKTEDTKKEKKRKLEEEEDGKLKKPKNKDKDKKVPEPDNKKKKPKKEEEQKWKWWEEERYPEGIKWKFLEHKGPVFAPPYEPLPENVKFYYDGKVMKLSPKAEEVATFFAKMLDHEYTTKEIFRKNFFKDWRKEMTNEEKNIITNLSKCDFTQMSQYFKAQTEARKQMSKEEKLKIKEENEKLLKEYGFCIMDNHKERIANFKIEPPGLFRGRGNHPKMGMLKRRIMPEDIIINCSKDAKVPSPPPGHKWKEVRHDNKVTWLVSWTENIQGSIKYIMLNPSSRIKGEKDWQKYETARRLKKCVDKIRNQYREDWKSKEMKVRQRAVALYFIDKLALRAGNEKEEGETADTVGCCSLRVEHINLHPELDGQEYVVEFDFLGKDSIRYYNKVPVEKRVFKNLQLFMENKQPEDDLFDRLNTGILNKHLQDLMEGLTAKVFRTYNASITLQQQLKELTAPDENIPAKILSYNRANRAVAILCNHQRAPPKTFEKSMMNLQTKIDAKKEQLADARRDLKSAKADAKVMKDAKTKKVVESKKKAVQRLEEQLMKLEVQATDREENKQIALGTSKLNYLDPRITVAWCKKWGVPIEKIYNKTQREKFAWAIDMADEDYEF", "test": "Topoisomerase-I-dependent DNA rupture assay, persistence of DNA damage", "type": "biochemical", "settings": "30 min incubation with 10 μM drug"}, "[3]": {"settings": "1 or 72 hr drug exposure, counted with Coulter counter 72 hours after exposure"}, "[4]": {"settings": "NCI-H460, H460 cells, 1 or 72 hr drug exposure, counted with Coulter counter 72 hours after exposure, read-out: NCl-H460 IC50 (μg/mL) Cell count"}, "[5]": {"settings": "NCI-H460, read-out: NCl-H460 IC50 (μg/mL) Cell count, H460 cells, 1 or 72 hr drug exposure, counted with Coulter counter 72 hours after exposure"}, "[6]": {"settings": "Time 0 min after adding 0.6 M NaCl"}}, "note": "Read-outs that look alike come from different tables or passages of the source.", "data": [{"smiles": "CC[C@@]1(O)C(=O)OCc2c1cc1n(c2=O)C(N(NC(=O)OC(C)(C)C)C(=O)OC(C)(C)C)c2cc3ccccc3nc2-1", "note": "(single isomer, unassigned) [5-di-tert-butoxycarbonyl-hydrazinocamptothecin Isomer 2, 5-di-t-butoxycarbonylhydrazino-camptothecin 2nd diastereomer]", "values": [{"measurement": "NCl-H460 IC50 (μg/mL) Cell count", "setting": "[1]; [3]", "result": "> 100", "unit": "µg/mL"}]}, {"smiles": "CC[C@@]1(O)C(=O)OCc2c1cc1n(c2=O)C(N(NC(=O)OC(C)(C)C)C(=O)OC(C)(C)C)c2cc3ccccc3nc2-1", "note": "(single isomer, unassigned) [5-di-tert-butoxycarbonyl-hydrazinocamptothecin Isomer 1, 5-di-t-butoxycarbonylhydrazino-camptothecin 1st diastereomer]", "values": [{"measurement": "IC50", "setting": "[1]; [4]", "result": 50, "unit": "µg/mL"}]}, {"smiles": "CC[C@@]1(O)C(=O)OCc2c1cc1n(c2=O)C(F)c2cc3ccccc3nc2-1", "note": "(single isomer, unassigned) [5-F-camptothecin Isomer 1, 5-F-camptothecin 1st diastereomer]", "values": [{"measurement": "IC50", "setting": "[1]; [5]", "result": 20.6, "unit": "µg/mL"}, {"measurement": "Persistence of DNA Damage (%)", "setting": "[2]; [6]", "result": 100, "unit": "%"}, {"measurement": "Persistence of DNA Damage (%)", "setting": "[2]; Time 1 min after adding 0.6 M NaCl, listed as 5-F CPT isomers 1", "result": 18, "unit": "%"}, {"measurement": "Persistence of DNA Damage (%)", "setting": "[2]; Time 5 min after adding 0.6 M NaCl, listed as 5-F CPT isomers 1", "result": 18, "unit": "%"}, {"measurement": "Persistence of DNA Damage (%)", "setting": "[2]; Time 10 min after adding 0.6 M NaCl, listed as 5-F CPT isomers 1", "result": 10, "unit": "%"}]}, {"smiles": "CC[C@@]1(O)C(=O)OCc2c1cc1n(c2=O)C(N=[N+]=[N-])c2cc3ccccc3nc2-1", "note": "(single isomer, unassigned) [5-N3-camptothecin Isomer 1, 5-N3-camptothecin 1st diastereomer]", "values": [{"measurement": "IC50", "setting": "[1]; [5]", "result": 4.18, "unit": "µg/mL"}]}, {"smiles": "CC[C@@]1(O)C(=O)OCc2c1cc1n(c2=O)C(N)c2cc3ccccc3nc2-1", "note": "(stereo partly shown) [5-NH2-camptothecin]", "values": [{"measurement": "IC50", "setting": "[1]; [4]", "result": "11 ± 3.1", "unit": "µg/mL"}]}, {"smiles": "CC[C@@]1(O)C(=O)OCc2c1cc1n(c2=O)C(N=[N+]=[N-])c2cc3ccccc3nc2-1", "note": "(single isomer, unassigned) [5-N3-camptothecin Isomer 2, 5-N3-camptothecin 2nd diastereomer]", "values": [{"measurement": "NCl-H460 IC50 (μg/mL) Cell count", "setting": "[1]; [3]", "result": "2.59 ± 0.7", "unit": "µg/mL"}]}, {"smiles": "CC[C@@]1(O)C(=O)OCc2c1cc1n(c2=O)C(N=[N+]=[N-])c2cc3ccccc3nc2-1", "note": "(single isomer, unassigned) [5-N3 CPT, 5-N3-camptothecin]", "values": [{"measurement": "Persistence of DNA Damage (%)", "setting": "[2]; [6]", "result": 100, "unit": "%"}, {"measurement": "Persistence of DNA Damage (%)", "setting": "[2]; Time 1 min after adding 0.6 M NaCl", "result": 50, "unit": "%"}, {"measurement": "Persistence of DNA Damage (%)", "setting": "[2]; Time 5 min after adding 0.6 M NaCl", "result": 30, "unit": "%"}, {"measurement": "Persistence of DNA Damage (%)", "setting": "[2]; Time 10 min after adding 0.6 M NaCl", "result": 15, "unit": "%"}]}, {"smiles": "CC[C@@]1(O)C(=O)OCc2c1cc1n(c2=O)C(F)c2cc3ccccc3nc2-1", "note": "(single isomer, unassigned) [5-F-camptothecin Isomer 2, 5-F-camptothecin 2nd diastereomer]", "values": [{"measurement": "NCl-H460 IC50 (μg/mL) Cell count", "setting": "[1]; [3]", "result": "20 ± 5.1", "unit": "µg/mL"}, {"measurement": "Persistence of DNA Damage (%)", "setting": "[2]; [6]", "result": 100, "unit": "%"}, {"measurement": "Persistence of DNA Damage (%)", "setting": "[2]; Time 1 min after adding 0.6 M NaCl, listed as 5-F CPT isomers 2", "result": 10, "unit": "%"}, {"measurement": "Persistence of DNA Damage (%)", "setting": "[2]; Time 5 min after adding 0.6 M NaCl, listed as 5-F CPT isomers 2", "result": 10, "unit": "%"}, {"measurement": "Persistence of DNA Damage (%)", "setting": "[2]; Time 10 min after adding 0.6 M NaCl, listed as 5-F CPT isomers 2", "result": 13, "unit": "%"}]}]}
